Test results: ChEMBL document CHEMBL1275533, “In vitro antibacterial activity of vertilmicin and its susceptibility to modifications by the recombinant AAC6'-APH2'' enzyme” (2008)
≈ marks a conversion by molar mass, not a printed value. Calls of active or inactive are those of the source. The calls are words filed in the database; no cut-off is given here.

How the values were obtained:
Enterobacter cloacae [1] = experiment: Antibacterial activity against non-gentamicin-resistant Enterobacter cloacae clinical isolate after 18 hrs by agar dilution method; assay type: functional
Staphylococcus aureus [2] = experiment: Bactericidal activity against Staphylococcus aureus ATCC 29213 at >=1 MIC up to 8 hrs by time-kill study; assay type: functional, organism-based
Pseudomonas aeruginosa [3] = experiment: Antibacterial activity against non-gentamicin-resistant Pseudomonas aeruginosa clinical isolate assessed as susceptible isolates after 18 hrs by agar dilution method; assay type: functional
Escherichia coli [4] = experiment: Antibacterial activity against Escherichia coli ATCC 25922 at MIC up to 8 hrs by time-kill study; assay type: functional, organism-based
Citrobacter koseri = experiment: Antibacterial activity against gentamicin-resistant Citrobacter diversus clinical isolate assessed as susceptible isolates after 18 hrs by agar dilution method; assay type: functional
Haemophilus influenzae [5] = experiment: Antibacterial activity against non-gentamicin-resistant Haemophilus influenzae clinical isolate assessed as susceptible isolates after 18 hrs by agar dilution method; assay type: functional, organism-based
Pseudomonas sp. = experiment: Antibacterial activity against non-gentamicin-resistant Pseudomonas spp. clinical isolate after 18 hrs by agar dilution method; assay type: functional
[6] = test system: Staphylococcus epidermidis; experiment: Antibacterial activity against Staphylococcus epidermidis isolate 01-55 after 18 hrs by agar dilution method; assay type: functional
Staphylococcus aureus [7] = experiment: Antibacterial activity against Staphylococcus aureus ATCC 29213 after 18 hrs by agar dilution method; assay type: functional
Klebsiella pneumoniae [8] = experiment: Antibacterial activity against non-gentamicin-resistant Klebsiella pneumoniae clinical isolate after 18 hrs by agar dilution method; assay type: functional
Enterobacter cloacae [9] = experiment: Antibacterial activity against gentamicin-resistant Enterobacter cloacae clinical isolate assessed as susceptible isolates after 18 hrs by agar dilution method; assay type: functional
Pseudomonas aeruginosa [10] = experiment: Antibacterial activity against non-gentamicin-resistant Pseudomonas aeruginosa clinical isolate after 18 hrs by agar dilution method; assay type: functional
[11] = test system: Acinetobacter calcoaceticus; experiment: Antibacterial activity against non-gentamicin-resistant Acinetobacter calcoaceticus clinical isolate after 18 hrs by agar dilution method; assay type: functional
[12] = test system: Staphylococcus epidermidis; experiment: Bactericidal activity against Staphylococcus epidermidis isolate 01-55 at >=1 MIC up to 8 hrs by time-kill study; assay type: functional, organism-based
Staphylococcus aureus [13] = experiment: Antibacterial activity against non-gentamicin-resistant Staphylococcus aureus clinical isolate after 18 hrs by agar dilution method; assay type: functional
Klebsiella aerogenes [14] = experiment: Antibacterial activity against non-gentamicin-resistant Enterobacter aerogenes clinical isolate assessed as susceptible isolates after 18 hrs by agar dilution method; assay type: functional
Morganella morganii = experiment: Antibacterial activity against non-gentamicin-resistant Morganella morganii clinical isolate assessed as susceptible isolates after 18 hrs by agar dilution method; assay type: functional
Klebsiella aerogenes [15] = experiment: Antibacterial activity against non-gentamicin-resistant Enterobacter aerogenes clinical isolate after 18 hrs by agar dilution method; assay type: functional
Proteus mirabilis = experiment: Antibacterial activity against non-gentamicin-resistant Proteus mirabilis clinical isolate assessed as susceptible isolates after 18 hrs by agar dilution method; assay type: functional
Klebsiella pneumoniae [16] = experiment: Antibacterial activity against gentamicin-resistant Klebsiella pneumoniae clinical isolate after 18 hrs by agar dilution method; assay type: functional
Klebsiella pneumoniae [17] = experiment: Antibacterial activity against Klebsiella pneumoniae isolate 01-21 at 1 MIC up to 8 hrs by time-kill study; assay type: functional, organism-based
Pseudomonas aeruginosa [18] = experiment: Antibacterial activity against gentamicin-resistant Pseudomonas aeruginosa clinical isolate after 18 hrs by agar dilution method; assay type: functional
Providencia rettgeri = experiment: Antibacterial activity against non-gentamicin-resistant Proteus rettgeri clinical isolate after 18 hrs by agar dilution method; assay type: functional
Haemophilus influenzae [19] = experiment: Antibacterial activity against non-gentamicin-resistant Haemophilus influenzae clinical isolate after 18 hrs by agar dilution method; assay type: functional
Enterobacter cloacae [20] = experiment: Antibacterial activity against non-gentamicin-resistant Enterobacter cloacae clinical isolate assessed as susceptible isolates after 18 hrs by agar dilution method; assay type: functional
Enterococcus faecalis = experiment: Antibacterial activity against gentamicin-resistant Enterococcus faecalis clinical isolate after 18 hrs by agar dilution method; assay type: functional
Klebsiella pneumoniae [21] = experiment: Antibacterial activity against Klebsiella pneumoniae isolate 01-21 after 18 hrs by agar dilution method; assay type: functional
Escherichia coli [22] = experiment: microbe, parasite or virus in culture; conditions: ATCC 25922, 18 h
Description: Antibacterial activity against Escherichia coli ATCC 25922 after 18 hrs by agar dilution method

[23] = test system: Escherichia coli BL21(DE3); experiment: Acetylation activity of AAC(6')-APH(2'') in Escherichia coli BL21(DE3) assessed as production of free pyridine-4-thiolate relative to netilmicin
[24] = test system: Escherichia coli BL21(DE3); experiment: Ratio of Vmax to Km for AAC(6')-APH(2'') in Escherichia coli BL21(DE3) assessed as production of free pyridine-4-thiolate relative to netilmicin
[25] = test system: Escherichia coli BL21(DE3); experiment: Ratio of Vmax to Km for AAC(6')-APH(2'') in Escherichia coli BL21(DE3) assessed as oxidation of NADH by pyruvate kinase relative to netilmicin
[26] = test system: Escherichia coli BL21(DE3); experiment: Acetylation activity of AAC(6')-APH(2'') in Escherichia coli BL21(DE3) assessed as production of free pyridine-4-thiolate
[27] = test system: Escherichia coli BL21(DE3); experiment: Phosphorylation activity of AAC(6')-APH(2'') in Escherichia coli BL21(DE3) assessed as oxidation of NADH by pyruvate kinase relative to verdamicin

GENTAMICIN
MIC50 (Enterobacter cloacae [1]): 0.25 µg/mL
MIC90 (Enterobacter cloacae [1]): 0.5 µg/mL
Activity (Staphylococcus aureus [2]): Dose-dependent effect
Activity (Pseudomonas aeruginosa [3]): 65.6%
Activity (Escherichia coli [4]): Dose-dependent effect
Activity (Citrobacter koseri): 0%
Activity (Haemophilus influenzae [5]): inactive
MIC50 (Pseudomonas sp.): 2 µg/mL
MIC90 (Pseudomonas sp.): 8 µg/mL
MIC [6]: 1 µg/mL
MIC (Staphylococcus aureus [7]): 0.125 µg/mL
MIC50 (Klebsiella pneumoniae [8]): 0.25 µg/mL
MIC90 (Klebsiella pneumoniae [8]): 0.5 µg/mL
Activity (Enterobacter cloacae [9]): 0%
MIC50 (Pseudomonas aeruginosa [10]): 4 µg/mL
MIC90 (Pseudomonas aeruginosa [10]): 8 µg/mL
MIC50 [11]: 0.25 µg/mL
MIC90 [11]: 2 µg/mL
Activity [12]: Dose-dependent effect
MIC50 (Staphylococcus aureus [13]): 0.125 µg/mL
MIC90 (Staphylococcus aureus [13]): 8 µg/mL
Activity (Klebsiella aerogenes [14]): 98.1%
Activity (Morganella morganii): 76%
MIC50 (Klebsiella aerogenes [15]): 0.25 µg/mL
MIC90 (Klebsiella aerogenes [15]): 0.5 µg/mL
Activity (Proteus mirabilis): 96.8%
MIC50 (Klebsiella pneumoniae [16]): 128 µg/mL
MIC90 (Klebsiella pneumoniae [16]): > 128 µg/mL
Activity (Klebsiella pneumoniae [17]): Dose-dependent effect
MIC50 (Pseudomonas aeruginosa [18]): > 128 µg/mL
MIC90 (Pseudomonas aeruginosa [18]): > 128 µg/mL
MIC50 (Providencia rettgeri): 4 µg/mL
MIC90 (Providencia rettgeri): 8 µg/mL
MIC50 (Haemophilus influenzae [19]): 2 µg/mL
MIC90 (Haemophilus influenzae [19]): 2 µg/mL
Activity (Enterobacter cloacae [20]): 98.2%
MIC50 (Enterococcus faecalis): > 128 µg/mL
MIC90 (Enterococcus faecalis): > 128 µg/mL
MIC (Klebsiella pneumoniae [21]): 0.25 µg/mL

CCN[C@@H]1C[C@H](N)[C@@H](O[C@@H]2OC(C(C)N)=CC[C@@H]2N)[C@H](O)[C@H]1O[C@H]1OC[C@](C)(O)[C@H](NC)[C@H]1O (some centres undefined) [VERTILMICIN]
MIC50 (Enterobacter cloacae [1]): 0.25 µg/mL (≈ 0.511 µM)
MIC90 (Enterobacter cloacae [1]): 0.5 µg/mL (≈ 1.02 µM)
Activity (Staphylococcus aureus [2]): Dose-dependent effect
Activity (Pseudomonas aeruginosa [3]): 78.7%
Activity (Escherichia coli [4]): Dose-dependent effect
MIC (Escherichia coli [22]): 0.25 µg/mL (≈ 0.511 µM)
Activity (Citrobacter koseri): 7.1%
Vmax [23]: 6.5%
Vmax/Km [24]: 4.2%
Activity (Haemophilus influenzae [5]): inactive
MIC50 (Pseudomonas sp.): 8 µg/mL (≈ 16.3 µM)
MIC90 (Pseudomonas sp.): 16 µg/mL (≈ 32.7 µM)
MIC ([6]; isolate 01-55, 18 h): 0.25 µg/mL (≈ 0.511 µM)
MIC (Staphylococcus aureus [7]; ATCC 29213, 18 h): 0.125 µg/mL (≈ 0.255 µM)
MIC50 (Klebsiella pneumoniae [8]): 0.25 µg/mL (≈ 0.511 µM)
MIC90 (Klebsiella pneumoniae [8]): 0.5 µg/mL (≈ 1.02 µM)
Activity (Enterobacter cloacae [9]): 26.3%
MIC50 (Pseudomonas aeruginosa [10]): 8 µg/mL (≈ 16.3 µM)
MIC90 (Pseudomonas aeruginosa [10]): 32 µg/mL (≈ 65.4 µM)
MIC50 [11]: 1 µg/mL (≈ 2.04 µM)
MIC90 [11]: 2 µg/mL (≈ 4.08 µM)
Activity [12]: Dose-dependent effect
MIC50 (Staphylococcus aureus [13]): 0.125 µg/mL (≈ 0.255 µM)
MIC90 (Staphylococcus aureus [13]): 2 µg/mL (≈ 4.08 µM)
Activity (Klebsiella aerogenes [14]): 98.1%
Activity (Morganella morganii): 100%
Vmax/Km [25]: 19.9%
MIC50 (Klebsiella aerogenes [15]): 0.5 µg/mL (≈ 1.02 µM)
MIC90 (Klebsiella aerogenes [15]): 2 µg/mL (≈ 4.08 µM)
Activity (Proteus mirabilis): 98.4%
MIC50 (Klebsiella pneumoniae [16]): 16 µg/mL (≈ 32.7 µM)
MIC90 (Klebsiella pneumoniae [16]): > 128 µg/mL
Activity (Klebsiella pneumoniae [17]): Dose-dependent effect
MIC50 (Pseudomonas aeruginosa [18]): 32 µg/mL (≈ 65.4 µM)
MIC90 (Pseudomonas aeruginosa [18]): > 128 µg/mL
Km [26]: 469 µM
MIC50 (Providencia rettgeri): 2 µg/mL (≈ 4.08 µM)
MIC90 (Providencia rettgeri): 8 µg/mL (≈ 16.3 µM)
Vmax [27]: 49.8%
MIC50 (Haemophilus influenzae [19]): 1 µg/mL (≈ 2.04 µM)
MIC90 (Haemophilus influenzae [19]): 1 µg/mL (≈ 2.04 µM)
Activity (Enterobacter cloacae [20]): 100%
MIC50 (Enterococcus faecalis): 4 µg/mL (≈ 8.17 µM)
MIC90 (Enterococcus faecalis): > 128 µg/mL
MIC (Klebsiella pneumoniae [21]; isolate 01-21, 18 h): 0.25 µg/mL (≈ 0.511 µM)
